Measured values reported in patent publication US20240336654A1, “ANTIMICROBIAL PEPTIDOMIMETICS” (SPEXIS AG, priority 2021, published 2024).
Where a SMILES comes first, the peptide text is derived from it. Bridges are numbered along the chain shown (N, C = ends). [ ]: non-standard residue; d: D form. The star is where a group is joined. Val(Nα-amidino) = CC(C)[C@H](NC(=N)N)C(=O)*; Dab(iPr) = CC(C)NCC[C@H](N)C(=O)O; Hyp = O=C(O)[C@@H]1C[C@@H](O)CN1; Cit = NC(=O)NCCC[C@H](N)C(=O)O; Pen = CC(C)(S)[C@H](N)C(=O)O; dDab = NCC[C@@H](N)C(=O)O; Dab = NCC[C@H](N)C(=O)O

Columns and labels:
Format in all cases: cell-based
[1] = system: Escherichia coli MCR-1 Af 45; conditions: MCR-1 Af 45
Summary of the method: (§1)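 MICs were determined by CLSI broth microdilution in cation-adjusted Mueller-Hinton II broth with about 5×10^5 CFU/mL inoculum. Peptides were tested in two-fold serial dilutions with 0.002% polysorbate 80 final. MIC in μg/mL is the lowest concentration with no visible growth after 18-20 h at 35 °C.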

[2] = system: Escherichia coli ATCC 25922; conditions: ATCC 25922
Summary of the method: as §1

[3] = system: Klebsiella pneumoniae SSI3010; conditions: SSI3010
Summary of the method: as §1

[4] = system: human red blood cells (hRBC); conditions: red cells of human, 1 h, 200 μg/mL
Summary of the method: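 Peptides at 200 μg/mL incubated 1 h at 37 °C with 20% (v/v) washed human RBC, shaking. Hemolysis from supernatant OD540, expressed as percent of 2.5% Triton X-100 lysis, with PBS as 0%.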

## CC[C@H](C)[C@H](NC(=O)[C@@H]1C[C@@H](O)CN1C(=O)[C@@H](NC(=N)N)C(C)C)C(=O)N[C@H]1CCNC(=O)CC[C@@H](C(=O)N[C@@H](Cc2ccc(O)cc2)C(=O)O)NC(=O)[C@H](CCN)NC(=O)[C@H](CCN)NC(=O)[C@H](CCCCN)NC(=O)[C@@H](CCN)NC(=O)[C@H](CO)NC(=O)[C@H](CCN)NC(=O)[C@H](CCCNC(=N)N)NC(=O)[C@H](CC(N)=O)NC(=O)[C@H](CO)NC(=O)[C@H](Cc2ccc(O)cc2)NC1=O [Example 84, Gua-Val-Hyp-Ile-Dab-Tyr-Ser-Asn-Arg-Dab-Ser-^DDab-Lys-Dab-Dab-Glu-Tyr] ({Val(Nα-amidino)}-[Hyp]I[Dab]YSNR[Dab]S[dDab]K[Dab][Dab]EY-OH; lactam 3-14)
[1]
  Escherichia coli MCR-1 Af45 MIC: 0.03125 µg/mL
[2]
  Escherichia coli ATCC 25922 MIC: 0.0625 µg/mL
[3]
  Klebsiella pneumoniae SSI3010 MIC: 0.125 µg/mL
[4]
  Hemolysis at 0.2 g/L: <1%

## CC[C@H](C)[C@H](NC(=O)[C@@H]1C[C@@H](O)CN1C(=O)[C@@H](NC(=N)N)C(C)C)C(=O)N[C@H]1CCNC(=O)CC[C@@H](C(=O)N[C@@H](Cc2ccc(O)cc2)C(=O)O)NC(=O)[C@H](CCN)NC(=O)[C@H](CCN)NC(=O)[C@H](CCCCN)NC(=O)[C@@H](CCN)NC(=O)[C@H]([C@@H](C)O)NC(=O)[C@H](CCN)NC(=O)[C@H](CCCNC(=N)N)NC(=O)[C@H](CC(N)=O)NC(=O)[C@H]([C@@H](C)O)NC(=O)[C@H](Cc2ccc(O)cc2)NC1=O [Example 85, Gua-Val-Hyp-Ile-Dab-Tyr-Thr-Asn-Arg-Dab-Thr-^DDab-Lys-Dab-Dab-Glu-Tyr] ({Val(Nα-amidino)}-[Hyp]I[Dab]YTNR[Dab]T[dDab]K[Dab][Dab]EY-OH; lactam 3-14)
[1]
  Escherichia coli MCR-1 Af45 MIC: 0.0625 µg/mL
[2]
  Escherichia coli ATCC 25922 MIC: 0.0625 µg/mL
[3]
  Klebsiella pneumoniae SSI3010 MIC: 0.125 µg/mL
[4]
  Hemolysis at 0.2 g/L: 1%

## CC[C@H](C)[C@H](NC(=O)[C@@H]1C[C@@H](O)CN1C(=O)[C@@H](NC(=N)N)C(C)C)C(=O)N[C@H]1CCNC(=O)CC[C@@H](C(=O)N[C@@H](Cc2ccc(O)cc2)C(=O)O)NC(=O)[C@H](CCN)NC(=O)[C@H](CCN)NC(=O)[C@H](CCCCN)NC(=O)[C@@H](CCN)NC(=O)[C@H](CO)NC(=O)[C@H](CCN)NC(=O)[C@H](CCCNC(=N)N)NC(=O)[C@H](CC(N)=O)NC(=O)[C@H]([C@@H](C)O)NC(=O)[C@H](Cc2ccc(O)cc2)NC1=O [Example 86, Gua-Val-Hyp-Ile-Dab-Tyr-Thr-Asn-Arg-Dab-Ser-^DDab-Lys-Dab-Dab-Glu-Tyr] ({Val(Nα-amidino)}-[Hyp]I[Dab]YTNR[Dab]S[dDab]K[Dab][Dab]EY-OH; lactam 3-14)
[1]
  Escherichia coli MCR-1 Af45 MIC: 0.03125 µg/mL
[2]
  Escherichia coli ATCC 25922 MIC: 0.03125 µg/mL
[3]
  Klebsiella pneumoniae SSI3010 MIC: 0.0625 µg/mL
[4]
  Hemolysis at 0.2 g/L: <1%

## CC[C@H](C)[C@H](NC(=O)[C@@H]1C[C@@H](O)CN1C(=O)[C@@H](NC(=N)N)C(C)C)C(=O)N[C@H]1CCC(=O)NCC[C@@H](C(=O)N[C@@H](Cc2ccc(O)cc2)C(=O)O)NC(=O)[C@H](CCN)NC(=O)[C@H](CCN)NC(=O)[C@H](CCCCN)NC(=O)[C@@H](CCN)NC(=O)[C@H]([C@@H](C)O)NC(=O)[C@H](CCN)NC(=O)[C@H](CCCNC(=N)N)NC(=O)[C@H](CC(N)=O)NC(=O)[C@H](CO)NC(=O)[C@H](Cc2ccc(O)cc2)NC1=O [Example 87, Gua-Val-Hyp-Ile-Glu-Tyr-Ser-Asn-Arg-Dab-Thr-^DDab-Lys-Dab-Dab-Dab-Tyr] ({Val(Nα-amidino)}-[Hyp]IEYSNR[Dab]T[dDab]K[Dab][Dab][Dab]Y-OH; lactam 3-14)
[1]
  Escherichia coli MCR-1 Af45 MIC: 0.0625 µg/mL
[2]
  Escherichia coli ATCC 25922 MIC: 0.125 µg/mL
[3]
  Klebsiella pneumoniae SSI3010 MIC: 0.125 µg/mL
[4]
  Hemolysis at 0.2 g/L: <1%

## CC[C@H](C)[C@H](NC(=O)[C@@H]1C[C@@H](O)CN1C(=O)[C@@H](NC(=N)N)C(C)C)C(=O)N[C@H]1CCC(=O)NCC[C@@H](C(=O)N[C@@H](Cc2ccc(O)cc2)C(=O)O)NC(=O)[C@H](CCN)NC(=O)[C@H](CCN)NC(=O)[C@H](CCCCN)NC(=O)[C@@H](CCN)NC(=O)[C@H]([C@@H](C)O)NC(=O)[C@H](CCN)NC(=O)[C@H](CCCNC(=N)N)NC(=O)[C@H](CC(N)=O)NC(=O)[C@H]([C@@H](C)O)NC(=O)[C@H](Cc2ccc(O)cc2)NC1=O [Example 88, Gua-Val-Hyp-Ile-Glu-Tyr-Thr-Asn-Arg-Dab-Thr-^DDab-Lys-Dab-Dab-Dab-Tyr] ({Val(Nα-amidino)}-[Hyp]IEYTNR[Dab]T[dDab]K[Dab][Dab][Dab]Y-OH; lactam 3-14)
[1]
  Escherichia coli MCR-1 Af45 MIC: 0.0625 µg/mL
[2]
  Escherichia coli ATCC 25922 MIC: 0.125 µg/mL
[3]
  Klebsiella pneumoniae SSI3010 MIC: 0.125 µg/mL
[4]
  Hemolysis at 0.2 g/L: <1%

## CC[C@H](C)[C@H](NC(=O)[C@@H]1C[C@@H](O)CN1C(=O)[C@@H](NC(=N)N)C(C)C)C(=O)N[C@H]1CCC(=O)NCC[C@@H](C(=O)N[C@@H](Cc2ccc(O)cc2)C(=O)O)NC(=O)[C@H](CCN)NC(=O)[C@H](CCN)NC(=O)[C@H](CCCCN)NC(=O)[C@@H](CCN)NC(=O)[C@H](CO)NC(=O)[C@H](CCN)NC(=O)[C@H](CCCNC(=N)N)NC(=O)[C@H](CC(N)=O)NC(=O)[C@H]([C@@H](C)O)NC(=O)[C@H](Cc2ccc(O)cc2)NC1=O [Example 89, Gua-Val-Hyp-Ile-Glu-Tyr-Thr-Asn-Arg-Dab-Ser-^DDab-Lys-Dab-Dab-Dab-Tyr] ({Val(Nα-amidino)}-[Hyp]IEYTNR[Dab]S[dDab]K[Dab][Dab][Dab]Y-OH; lactam 3-14)
[1]
  Escherichia coli MCR-1 Af45 MIC: 0.125 µg/mL
[2]
  Escherichia coli ATCC 25922 MIC: 0.125 µg/mL
[3]
  Klebsiella pneumoniae SSI3010 MIC: 0.125 µg/mL
[4]
  Hemolysis at 0.2 g/L: <1%

## CC[C@H](C)[C@H](NC(=O)[C@@H]1C[C@@H](O)CN1C(=O)[C@@H](NC(=N)N)C(C)C)C(=O)N[C@@H]1C(=O)N[C@@H](Cc2ccc(O)cc2)C(=O)N[C@@H](CO)C(=O)N[C@@H](CC(N)=O)C(=O)N[C@@H](CCCNC(=N)N)C(=O)N[C@@H](CCN)C(=O)N[C@@H]([C@@H](C)O)C(=O)N[C@H](CCN)C(=O)N[C@@H]([C@@H](C)O)C(=O)N[C@@H](CCN)C(=O)N[C@@H](CCN)C(=O)N[C@H](C(=O)N[C@@H](Cc2ccc(O)cc2)C(=O)O)CSSC1(C)C [Example 90, Gua-Val-Hyp-Ile-Pen-Tyr-Ser-Asn-Arg-Dab-Thr-^DDab-Thr-Dab-Dab-Cys-Tyr] ({Val(Nα-amidino)}-[Hyp]I[Pen]YSNR[Dab]T[dDab]T[Dab][Dab]CY-OH; disulfide 3-14)
[1]
  Escherichia coli MCR-1 Af45 MIC: 0.125 µg/mL
[2]
  Escherichia coli ATCC 25922 MIC: 0.25 µg/mL
[3]
  Klebsiella pneumoniae SSI3010 MIC: 0.25 µg/mL
[4]
  Hemolysis at 0.2 g/L: <1%

## CC[C@H](C)[C@H](NC(=O)[C@@H]1C[C@@H](O)CN1C(=O)[C@@H](NC(=N)N)C(C)C)C(=O)N[C@@H]1C(=O)N[C@@H](Cc2ccc(O)cc2)C(=O)N[C@@H]([C@@H](C)O)C(=O)N[C@@H](CC(N)=O)C(=O)N[C@@H](CCCNC(=N)N)C(=O)N[C@@H](CCCNC(N)=O)C(=O)N[C@@H]([C@@H](C)O)C(=O)N[C@H](CCN)C(=O)N[C@@H](CCCCN)C(=O)N[C@@H](CCN)C(=O)N[C@@H](CCN)C(=O)N[C@H](C(=O)N[C@@H](Cc2ccc(O)cc2)C(=O)O)CSSC1(C)C [Example 91, Gua-Val-Hyp-Ile-Pen-Tyr-Thr-Asn-Arg-Cit-Thr-^DDab-Lys-Dab-Dab-Cys-Y] ({Val(Nα-amidino)}-[Hyp]I[Pen]YTNR[Cit]T[dDab]K[Dab][Dab]CY-OH; disulfide 3-14)
[1]
  Escherichia coli MCR-1 Af45 MIC: 0.125 µg/mL
[2]
  Escherichia coli ATCC 25922 MIC: 0.125 µg/mL
[3]
  Klebsiella pneumoniae SSI3010 MIC: 0.25 µg/mL
[4]
  Hemolysis at 0.2 g/L: <1%

## CC[C@H](C)[C@H](NC(=O)[C@@H]1C[C@@H](O)CN1C(=O)[C@@H](NC(=N)N)C(C)C)C(=O)N[C@@H]1C(=O)N[C@@H](Cc2ccc(O)cc2)C(=O)N[C@@H]([C@@H](C)O)C(=O)N[C@@H](CC(N)=O)C(=O)N[C@@H](CCCNC(=N)N)C(=O)N[C@@H](CCNC(C)C)C(=O)N[C@@H]([C@@H](C)O)C(=O)N[C@H](CCN)C(=O)N[C@@H](CCCCN)C(=O)N[C@@H](CCN)C(=O)N[C@@H](CCN)C(=O)N[C@H](C(=O)N[C@@H](Cc2ccc(O)cc2)C(=O)O)CSSC1(C)C [Example 92, Gua-Val-Hyp-Ile-Pen-Tyr-Thr-Asn-Arg-Dab(iPr)-Thr-^DDab-Lys-Dab-Dab-Cys-Tyr] ({Val(Nα-amidino)}-[Hyp]I[Pen]YTNR[Dab(iPr)]T[dDab]K[Dab][Dab]CY-OH; disulfide 3-14)
[1]
  Escherichia coli MCR-1 Af45 MIC: 0.0625 µg/mL
[2]
  Escherichia coli ATCC 25922 MIC: 0.0625 µg/mL
[3]
  Klebsiella pneumoniae SSI3010 MIC: 0.25 µg/mL
[4]
  Hemolysis at 0.2 g/L: <1%

## CC[C@H](C)[C@H](NC(=O)[C@@H]1C[C@@H](O)CN1C(=O)[C@@H](NC(=N)N)C(C)C)C(=O)N[C@@H]1C(=O)N[C@@H](Cc2ccc(O)cc2)C(=O)N[C@@H]([C@@H](C)O)C(=O)N[C@@H](CC(N)=O)C(=O)N[C@@H](CCCNC(=N)N)C(=O)N[C@@H](CCNC(C)C)C(=O)N[C@@H]([C@@H](C)O)C(=O)N[C@H](CCN)C(=O)N[C@@H](CO)C(=O)N[C@@H](CCN)C(=O)N[C@@H](CCN)C(=O)N[C@H](C(=O)N[C@@H](Cc2ccc(O)cc2)C(=O)O)CSSC1(C)C [Example 93, Gua-Val-Hyp-Ile-Pen-Tyr-Thr-Asn-Arg-Dab(iPr)-Thr-^DDab-Ser-Dab-Dab-Cys-Tyr] ({Val(Nα-amidino)}-[Hyp]I[Pen]YTNR[Dab(iPr)]T[dDab]S[Dab][Dab]CY-OH; disulfide 3-14)
[1]
  Escherichia coli MCR-1 Af45 MIC: 0.25 µg/mL
[2]
  Escherichia coli ATCC 25922 MIC: 0.25 µg/mL
[3]
  Klebsiella pneumoniae SSI3010 MIC: 0.5 µg/mL
[4]
  Hemolysis at 0.2 g/L: <1%
